{"source": "patent US10213428B2", "about": "“(4-((3R,4R)-3-methoxytetrahydro-pyran-4-ylamino)piperidin-1-yl)(5-methyl-6-(((2R,6S)-6-(p-tolyl)tetrahydro-2H-pyran-2-yl)methylamino)pyrimidin-4-yl)methanone citrate” (Centrexion Therapeutics Corporation, priority 2015, dated 2019)", "key": {"[1]": {"test": "Intravenous pharmacokinetics in dog", "assay_type": "in vivo, beagle dogs", "conditions": "IV dose 5 μmol/kg, mean values", "source_text": "(§1) The pharmacokinetics of the test compound following single intravenous (IV) or oral (PO) doses were examined in • female BALB/c mice (average weight: 25 g) • male Wistar(Han) rats (average weight: 260 g) • male and female Göttingen Minipigs (average weight: 24 kg) • male beagle dogs (average weight: 15 kg) All non-rodent species were fasted overnight prior to dosing, while mice and rats had food and water available ad libitum. The p.o. dose of the compound was usually administered as suspension in 0.5% Natrosol or as a 0.5% Natrosol/0.015% Tween 80 suspension. For i.v. dosing purposes, the doses were applied as a solution in 0.9% NaCL, or as a solution containing 9.1% HP-beta Cyclodextrin in water.\n(§2) Blood was collected by venous sampling and soaking of the blood in EDTA coated tubes. Samples were collected for up to 48 h after administration of the test compound. Plasma was then separated by centrifugation (5 min by approximately 9000 g at 4° C.). For determination of the test compound, plasma was transferred into PCR plates. All samples were stored at approximately −20° C. until bioanalytics. The test compound concentrations in plasma were determined by HPLC MS/MS. The lower limit of quantification was between 0.5 nmol/L and 1 nmol/L."}, "plasma protein [2]": {"test_system": "plasma protein", "test": "In vitro plasma protein binding (equilibrium dialysis), human", "assay_type": "in vitro ADME", "conditions": "1.0 μM, dialysis 2 hours at 37° C.", "experimental": "(§3) Dianorm Teflon dialysis cells (micro 0.2) are used. Each cell consists of a donor (i.e., buffer chamber) and an acceptor chamber (i.e., plasma chamber), separated by an ultrathin semipermeable membrane with a 5 kDa molecular weight cutoff. Stock solutions for each test compound are prepared in DMSO at 1 mM and diluted to a final concentration of 1.0 μM. Aliquots of 200 μL dialysis buffer (100 mM potassium phosphate, pH 7.4) are dispensed into the buffer chamber. Aliquots of 200 μL test compound dialysis solution are dispensed into the plasma chambers. Incubation is carried out for 2 hours under rotation at 37° C. Then, the dialysate is transferred into reaction tubes. The tubes for the buffer fraction contain 0.2 mL acetonitril/water (80/20 volume/volume). Aliquots of 25 μL of the plasma dialysate are transferred into deep well plates and mixed with 25 μL acetonitril/water (80/20 volume/volume), 25 μL buffer, 25 μL calibration solution and 25 μL Internal Standard solution. Protein precipitation is done by adding 200 μL acetonitrile. Aliquots of 50 μL of the buffer dialysate are transferred into deep well plates and mixed with 25 μL blank plasma, 25 μL Internal Standard solution and 200 μL acetonitril. Percent bound is calculated with the formula: % bound=(plasma concentration−buffer concentration/plasma concentration)×100."}, "[3]": {"test": "In vitro plasma protein binding (equilibrium dialysis), human", "assay_type": "in vitro ADME", "conditions": "pH 7.4, dialysis 2 hours at 37° C., read-out: Fraction bound (converted)", "experimental": "as §3"}, "[4]": {"test": "Intravenous pharmacokinetics in mouse", "assay_type": "in vivo, BALB/c mice", "conditions": "IV dose 10 μmol/kg, mean values", "source_text": "as §1, §2"}, "[5]": {"test": "Intravenous pharmacokinetics in rat", "assay_type": "in vivo, Wistar(Han) rats", "conditions": "IV dose 5 μmol/kg, mean values", "source_text": "as §1, §2"}, "plasma protein [6]": {"test_system": "plasma protein", "test": "In vitro plasma protein binding (equilibrium dialysis), dog", "assay_type": "in vitro ADME", "conditions": "1.0 μM, dialysis 2 hours at 37° C.", "experimental": "as §3"}, "[7]": {"test": "In vitro plasma protein binding (equilibrium dialysis), dog", "assay_type": "in vitro ADME", "conditions": "pH 7.4, dialysis 2 hours at 37° C., read-out: Fraction bound (converted)", "experimental": "as §3"}, "[8]": {"molecular_target": "T1, hERG-mediated potassium current (Homo sapiens, UniProt Q12809)", "T1 construct": "expressed in transfected cells", "T1 sequence (Q12809 whole entry)": "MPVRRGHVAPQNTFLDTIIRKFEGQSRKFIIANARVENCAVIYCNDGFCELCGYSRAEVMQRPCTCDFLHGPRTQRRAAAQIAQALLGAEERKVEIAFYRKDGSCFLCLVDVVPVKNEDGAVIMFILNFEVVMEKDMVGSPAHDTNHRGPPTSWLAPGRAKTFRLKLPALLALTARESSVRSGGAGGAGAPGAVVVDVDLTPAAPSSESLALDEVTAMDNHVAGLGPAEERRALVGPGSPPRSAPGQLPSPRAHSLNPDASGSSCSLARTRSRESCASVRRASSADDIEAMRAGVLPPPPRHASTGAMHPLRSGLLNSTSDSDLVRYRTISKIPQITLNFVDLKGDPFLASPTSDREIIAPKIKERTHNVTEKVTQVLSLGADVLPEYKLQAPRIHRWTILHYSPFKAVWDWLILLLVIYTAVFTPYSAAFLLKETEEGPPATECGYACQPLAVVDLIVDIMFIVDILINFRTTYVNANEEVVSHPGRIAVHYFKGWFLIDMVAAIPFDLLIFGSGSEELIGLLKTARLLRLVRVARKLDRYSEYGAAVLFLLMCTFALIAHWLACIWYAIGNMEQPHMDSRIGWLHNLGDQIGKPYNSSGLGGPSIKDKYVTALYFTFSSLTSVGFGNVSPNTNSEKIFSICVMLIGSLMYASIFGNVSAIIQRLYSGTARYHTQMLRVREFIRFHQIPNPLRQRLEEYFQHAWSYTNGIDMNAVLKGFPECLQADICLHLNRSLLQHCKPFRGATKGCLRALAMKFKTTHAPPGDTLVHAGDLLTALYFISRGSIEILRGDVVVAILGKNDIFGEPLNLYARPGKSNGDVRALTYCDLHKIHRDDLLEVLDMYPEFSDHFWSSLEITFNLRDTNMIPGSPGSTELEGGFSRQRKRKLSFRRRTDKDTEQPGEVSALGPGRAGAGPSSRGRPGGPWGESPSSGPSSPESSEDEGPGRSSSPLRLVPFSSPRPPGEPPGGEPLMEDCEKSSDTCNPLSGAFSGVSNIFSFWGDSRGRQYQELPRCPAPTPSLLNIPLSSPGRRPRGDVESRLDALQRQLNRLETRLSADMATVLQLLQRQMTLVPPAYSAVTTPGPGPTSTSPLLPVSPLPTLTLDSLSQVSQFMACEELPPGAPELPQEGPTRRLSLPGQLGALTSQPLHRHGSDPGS", "test": "hERG-channel assay (whole-cell patch clamp, HEK293 cells transfected with hERG cDNA)", "assay_type": "cell-based", "conditions": "HEK293 cells, whole-cell patch clamp; read-out: IC50, inhibition of hERG-mediated potassium current", "source_text": "(§4) HEK (human embryonic kidney) 293 cells were stably transfected with hERG cDNA. Cells determined for use in patch clamp experiments were cultivated without antibiotic.\n(§5) Cells were superfused with a bath solution containing (mM): NaCl (137), KCl (4.0), MgCl2 (1.0), CaCl2 (1.8), Glucose (10), HEPES (10), pH 7.4 with NaOH. Patch pipettes were made from borosilicate glass tubing (Hilgenberg, Malsfeld, Germany) using a horizontal puller (DMZ-Universal Puller, Zeitz-Instrumente, Martinsried, Germany) and filled with pipette solution containing (mM): K-aspartate (130), MgCl2 (5.0), EGTA (5.0), K2ATP (4.0), HEPES (10.0), pH 7.2 with KOH. Resistance of the microelectrodes was in the range between 2 and 5 MΩ.\n(§6) Membrane currents were recorded using an EPC-10 patch clamp amplifier (HEKA Electronics, Lambrecht, Germany) and PatchMaster software (HEKA). The current signals were Bessel filtered at 2.5 kHz before being digitized at 5 kHz.\n(§7) hERG-mediated membrane currents were recorded at typically 28° C., using the whole-cell configuration of the patch-clamp technique. […] During each inter-pulse interval 4 pulses scaled down by a factor of 0.2 were recorded for a P/n leak subtraction procedure. […] The remaining uncompensated Rs was recorded as well as actual temperature and holding current.\n(§8) The concentrations of the test item were applied sequentially on each of the different cells investigated. A steady state level of baseline current was measured for at least 90 s prior to the application of the first test article concentration. […]\n(§9) Peak current amplitudes were measured 3 ms after the ramp to +40 mV. […] Residual currents (I/I0) were calculated for each cell as the fraction of actual average peak current and average baseline peak current. Current inhibition was expressed as (1−I/I0)*100%. […]"}, "hERG": {"molecular_target": "T2, hERG (Homo sapiens, UniProt Q12809)", "T2 construct": "expressed in transfected cells", "T2 sequence (Q12809 whole entry)": "as above", "test": "hERG-channel assay (whole-cell patch clamp, HEK293 cells transfected with hERG cDNA)", "assay_type": "cell-based", "conditions": "human, HEK293 cells stably transfected with hERG cDNA, pH 7.4, read-out: inhibition of hERG-mediated potassium current", "source_text": "as §4, §5, §6, §7, §8, §9"}, "[9]": {"conditions": "male, beagle, plasma, 5 umol/kg"}, "[10]": {"conditions": "female, BALB/c, plasma, 10 umol/kg"}, "[11]": {"conditions": "male, Wistar(Han), plasma, 5 umol/kg"}}}
{"smiles": "CO[C@H]1COCC[C@H]1NC1CCN(C(=O)c2ncnc(NC[C@H]3CCC[C@@H](c4ccc(C)cc4)O3)c2C)CC1", "note": "[compound I, (4-((3R,4R)-3-methoxytetrahydro-pyran-4-ylamino)piperidin-1-yl)(5-methyl-6-(((2R,6S)-6-(p-tolyl)tetrahydro-2H-pyran-2-yl)methylamino)pyrimidin-4-yl)methanone]", "values": [{"measurement": "MRTdisp", "setting": "[1]", "result": 6.40, "unit": "h"}, {"measurement": "AUC(0-inf)", "setting": "[1]; [9]", "result": 5.99, "unit": "µM·h"}, {"measurement": "clearance", "setting": "[1]; [9]", "result": 14, "unit": "mL/min/kg"}, {"measurement": "Vd", "setting": "[1]; male, beagle, plasma, 5 umol/kg, read-out: Vss", "result": 4.94, "unit": "L/kg"}, {"measurement": "Fraction unbound", "setting": "plasma protein [2]", "result": 15.3, "unit": "%"}, {"measurement": "fraction unbound at 2 h, 1 μM", "setting": "[3]", "result": 0.153}, {"measurement": "MRTdisp", "setting": "[4]", "result": 0.623, "unit": "h"}, {"measurement": "AUC(0-inf)", "setting": "[4]; [10]", "result": 1.99, "unit": "µM·h"}, {"measurement": "clearance", "setting": "[4]; [10]", "result": 86, "unit": "mL/min/kg"}, {"measurement": "Vd", "setting": "[4]; female, BALB/c, plasma, 10 umol/kg, read-out: Vss", "result": 3.29, "unit": "L/kg"}, {"measurement": "MRTdisp", "setting": "[5]", "result": 1.49, "unit": "h"}, {"measurement": "AUC(0-inf)", "setting": "[5]; [11]", "result": 1.49, "unit": "µM·h"}, {"measurement": "clearance", "setting": "[5]; [11]", "result": 56.1, "unit": "mL/min/kg"}, {"measurement": "Vd", "setting": "[5]; male, Wistar(Han), plasma, 5 umol/kg, read-out: Vss", "result": 5.04, "unit": "L/kg"}, {"measurement": "Fraction unbound", "setting": "plasma protein [6]", "result": 29.6, "unit": "%"}, {"measurement": "fraction unbound at 2 h, 1 μM", "setting": "[7]", "result": 0.296}, {"measurement": "IC50", "setting": "[8]", "result": "> 30", "unit": "µM"}, {"measurement": "inhibition at 10 µM", "setting": "hERG; at 10 μM", "result": 12, "unit": "%"}, {"measurement": "inhibition at 30 µM", "setting": "hERG; at 30 μM", "result": 28, "unit": "%"}]}
